Assay results from patent US10526316B2, “Quinoxaline and pyridopyrazine derivatives as PI3Kβ inhibitors” (Janssen Pharmaceutica NV, priority 2015, dated 2020).
Where two headings read alike, the source gives them in different places.

Key:
PI3Kβ = biological target: T1, PI3Kβ (Homo sapiens, UniProt P42338); experiment: Enzyme binding assay (KINOMEscan, DiscoveRx); details: PIK3Cβ_h, read-out: Kd PIK3Cβ_h
T1 construct: purchased DiscoveRx Corporation, San Diego (contract service, KINOMEscan)
Summary of the method: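 KINOMEscan binding platform; read-out is the inhibitor binding constant Kd (nM).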

PI3Kδ = biological target: T2, PI3Kδ (Homo sapiens, UniProt O00329); experiment: Enzyme binding assay (KINOMEscan, DiscoveRx); details: PIK3Cδ_h
T2 construct: purchased DiscoveRx Corporation, San Diego (contract service, KINOMEscan)
T2 sequence (O00329 1-1044): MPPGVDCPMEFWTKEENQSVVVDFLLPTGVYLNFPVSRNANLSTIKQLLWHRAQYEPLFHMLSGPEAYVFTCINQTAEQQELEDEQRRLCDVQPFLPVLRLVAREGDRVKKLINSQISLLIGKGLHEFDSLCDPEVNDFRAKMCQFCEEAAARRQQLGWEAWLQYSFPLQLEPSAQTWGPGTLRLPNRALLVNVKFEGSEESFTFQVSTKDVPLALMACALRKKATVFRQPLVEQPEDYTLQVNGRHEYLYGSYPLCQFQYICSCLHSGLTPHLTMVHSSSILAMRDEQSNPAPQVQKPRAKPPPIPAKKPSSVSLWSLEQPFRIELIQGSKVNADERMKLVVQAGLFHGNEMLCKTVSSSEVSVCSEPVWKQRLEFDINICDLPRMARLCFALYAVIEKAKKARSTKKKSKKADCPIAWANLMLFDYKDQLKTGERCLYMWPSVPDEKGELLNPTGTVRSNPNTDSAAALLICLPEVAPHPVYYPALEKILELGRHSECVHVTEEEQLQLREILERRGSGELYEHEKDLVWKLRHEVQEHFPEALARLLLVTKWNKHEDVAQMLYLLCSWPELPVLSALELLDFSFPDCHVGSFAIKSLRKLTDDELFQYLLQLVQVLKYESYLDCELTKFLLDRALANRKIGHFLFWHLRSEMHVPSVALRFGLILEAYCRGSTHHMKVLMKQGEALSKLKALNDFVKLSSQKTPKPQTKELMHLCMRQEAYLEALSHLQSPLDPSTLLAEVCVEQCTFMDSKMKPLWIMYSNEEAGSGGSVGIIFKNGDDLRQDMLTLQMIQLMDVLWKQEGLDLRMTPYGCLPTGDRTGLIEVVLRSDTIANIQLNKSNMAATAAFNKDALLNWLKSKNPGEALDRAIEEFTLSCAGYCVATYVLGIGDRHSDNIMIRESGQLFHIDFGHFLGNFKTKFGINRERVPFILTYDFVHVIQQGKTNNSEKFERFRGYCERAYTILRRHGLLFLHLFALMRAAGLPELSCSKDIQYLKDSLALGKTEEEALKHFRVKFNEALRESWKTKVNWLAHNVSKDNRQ
Summary of the method: (§1)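 KINOMEscan readout; values are kinase binding affinities.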

kinase enzymes [1] = biological target: T3, kinase enzymes (Homo sapiens, UniProt P42336); experiment: Enzyme binding assay (KINOMEscan, DiscoveRx), further kinases of Table A; details: PIK3Cα_h
T3 construct: purchased DiscoveRx Corporation, San Diego (contract service, KINOMEscan)
Summary of the method: as §1

kinase enzymes [2] = biological target: T4, kinase enzymes (Homo sapiens, UniProt P42345); experiment: as above; details: MTOR_h
T4 construct: purchased DiscoveRx Corporation, San Diego (contract service, KINOMEscan)
Summary of the method: as §1

kinase enzymes [3] = biological target: T5, kinase enzymes (Homo sapiens, UniProt P48736); experiment: as above; details: PIK3Cγ_h
T5 construct: purchased DiscoveRx Corporation, San Diego (contract service, KINOMEscan)
Summary of the method: as §1

[4] = system: Akt phosphorylated at Ser473 in PC-3 cells; experiment: Cellular assay: phosphorylation of Akt at Ser473 in PC-3 cells (MSD ELISA); assay type: cell-based; details: PC-3 cells, 60 min compound incubation, MSD ELISA, read-out: IC50 pAkt_S473
Summary of the method: (§2)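 Electrochemiluminescent sandwich ELISA read-out: phospho-specific capture (Ser473 or Thr308), Sulfo-tag anti-total Akt detection, signal proportional to phospho-Akt. Cells treated 60 min at 37° C with compound, DMSO 0.3%. IC50 fitted from five concentrations.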

[5] = system: Akt phosphorylated at Thr308 in PC-3 cells; experiment: Cellular assay: phosphorylation of Akt at Thr308 in PC-3 cells (MSD ELISA); assay type: cell-based; details: PC-3 cells, 60 min compound incubation, MSD ELISA, read-out: IC50 pAkt_Thr308
Summary of the method: as §2

T1 sequence (P42338 whole entry): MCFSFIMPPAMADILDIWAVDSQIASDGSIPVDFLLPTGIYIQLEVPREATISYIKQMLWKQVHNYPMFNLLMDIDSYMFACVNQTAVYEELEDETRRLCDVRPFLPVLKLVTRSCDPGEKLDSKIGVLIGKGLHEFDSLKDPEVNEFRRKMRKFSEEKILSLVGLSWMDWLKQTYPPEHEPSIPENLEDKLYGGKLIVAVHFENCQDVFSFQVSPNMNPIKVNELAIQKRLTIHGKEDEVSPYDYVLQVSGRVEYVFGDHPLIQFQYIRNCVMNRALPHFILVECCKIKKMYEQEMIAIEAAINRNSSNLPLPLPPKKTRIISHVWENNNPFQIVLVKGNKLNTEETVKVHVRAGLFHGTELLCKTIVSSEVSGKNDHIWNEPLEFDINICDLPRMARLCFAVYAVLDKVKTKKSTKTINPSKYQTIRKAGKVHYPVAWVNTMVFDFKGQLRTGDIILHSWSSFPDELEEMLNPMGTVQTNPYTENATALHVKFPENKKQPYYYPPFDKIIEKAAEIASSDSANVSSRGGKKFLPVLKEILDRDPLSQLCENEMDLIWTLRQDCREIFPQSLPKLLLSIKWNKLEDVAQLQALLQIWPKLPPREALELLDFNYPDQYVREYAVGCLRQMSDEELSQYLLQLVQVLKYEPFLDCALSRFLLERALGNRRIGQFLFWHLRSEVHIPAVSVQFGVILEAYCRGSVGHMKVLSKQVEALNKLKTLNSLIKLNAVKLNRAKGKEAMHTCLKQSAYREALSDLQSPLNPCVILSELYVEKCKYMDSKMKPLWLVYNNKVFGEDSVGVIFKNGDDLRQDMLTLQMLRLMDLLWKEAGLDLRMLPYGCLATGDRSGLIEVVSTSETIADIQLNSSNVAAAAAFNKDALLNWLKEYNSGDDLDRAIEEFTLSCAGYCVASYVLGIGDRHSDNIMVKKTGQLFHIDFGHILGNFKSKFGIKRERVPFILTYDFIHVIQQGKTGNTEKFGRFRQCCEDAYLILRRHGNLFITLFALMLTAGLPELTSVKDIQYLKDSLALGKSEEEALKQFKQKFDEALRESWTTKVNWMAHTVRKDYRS
T5 sequence (P48736 whole entry): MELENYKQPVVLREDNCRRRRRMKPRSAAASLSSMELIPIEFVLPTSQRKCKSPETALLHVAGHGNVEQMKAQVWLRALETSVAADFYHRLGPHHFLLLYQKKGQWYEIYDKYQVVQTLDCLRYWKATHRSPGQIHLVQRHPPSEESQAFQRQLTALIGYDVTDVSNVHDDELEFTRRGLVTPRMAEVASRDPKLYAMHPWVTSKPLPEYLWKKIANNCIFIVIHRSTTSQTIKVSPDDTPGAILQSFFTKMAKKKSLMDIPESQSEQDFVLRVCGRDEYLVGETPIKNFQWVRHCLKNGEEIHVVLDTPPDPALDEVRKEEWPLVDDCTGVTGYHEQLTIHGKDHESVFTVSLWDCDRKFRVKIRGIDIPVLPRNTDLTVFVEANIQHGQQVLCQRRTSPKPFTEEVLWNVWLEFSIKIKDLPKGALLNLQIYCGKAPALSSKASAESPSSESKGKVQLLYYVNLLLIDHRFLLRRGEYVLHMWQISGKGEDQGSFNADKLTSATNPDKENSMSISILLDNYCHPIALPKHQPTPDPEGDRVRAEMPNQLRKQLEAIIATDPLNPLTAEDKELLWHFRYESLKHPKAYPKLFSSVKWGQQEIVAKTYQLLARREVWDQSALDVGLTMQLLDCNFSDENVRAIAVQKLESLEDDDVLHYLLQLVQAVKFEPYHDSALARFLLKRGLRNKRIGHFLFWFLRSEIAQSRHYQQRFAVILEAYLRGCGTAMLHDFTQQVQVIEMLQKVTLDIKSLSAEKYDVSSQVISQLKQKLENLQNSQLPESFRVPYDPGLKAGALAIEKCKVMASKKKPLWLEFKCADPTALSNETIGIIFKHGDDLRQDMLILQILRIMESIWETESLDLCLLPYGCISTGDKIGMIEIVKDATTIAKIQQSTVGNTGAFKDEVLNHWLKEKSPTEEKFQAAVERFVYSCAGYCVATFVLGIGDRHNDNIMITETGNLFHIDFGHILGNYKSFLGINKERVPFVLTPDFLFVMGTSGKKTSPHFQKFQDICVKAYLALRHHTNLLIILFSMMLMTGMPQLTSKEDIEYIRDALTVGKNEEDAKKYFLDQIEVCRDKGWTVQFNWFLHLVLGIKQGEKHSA
T3 sequence (P42336 whole entry): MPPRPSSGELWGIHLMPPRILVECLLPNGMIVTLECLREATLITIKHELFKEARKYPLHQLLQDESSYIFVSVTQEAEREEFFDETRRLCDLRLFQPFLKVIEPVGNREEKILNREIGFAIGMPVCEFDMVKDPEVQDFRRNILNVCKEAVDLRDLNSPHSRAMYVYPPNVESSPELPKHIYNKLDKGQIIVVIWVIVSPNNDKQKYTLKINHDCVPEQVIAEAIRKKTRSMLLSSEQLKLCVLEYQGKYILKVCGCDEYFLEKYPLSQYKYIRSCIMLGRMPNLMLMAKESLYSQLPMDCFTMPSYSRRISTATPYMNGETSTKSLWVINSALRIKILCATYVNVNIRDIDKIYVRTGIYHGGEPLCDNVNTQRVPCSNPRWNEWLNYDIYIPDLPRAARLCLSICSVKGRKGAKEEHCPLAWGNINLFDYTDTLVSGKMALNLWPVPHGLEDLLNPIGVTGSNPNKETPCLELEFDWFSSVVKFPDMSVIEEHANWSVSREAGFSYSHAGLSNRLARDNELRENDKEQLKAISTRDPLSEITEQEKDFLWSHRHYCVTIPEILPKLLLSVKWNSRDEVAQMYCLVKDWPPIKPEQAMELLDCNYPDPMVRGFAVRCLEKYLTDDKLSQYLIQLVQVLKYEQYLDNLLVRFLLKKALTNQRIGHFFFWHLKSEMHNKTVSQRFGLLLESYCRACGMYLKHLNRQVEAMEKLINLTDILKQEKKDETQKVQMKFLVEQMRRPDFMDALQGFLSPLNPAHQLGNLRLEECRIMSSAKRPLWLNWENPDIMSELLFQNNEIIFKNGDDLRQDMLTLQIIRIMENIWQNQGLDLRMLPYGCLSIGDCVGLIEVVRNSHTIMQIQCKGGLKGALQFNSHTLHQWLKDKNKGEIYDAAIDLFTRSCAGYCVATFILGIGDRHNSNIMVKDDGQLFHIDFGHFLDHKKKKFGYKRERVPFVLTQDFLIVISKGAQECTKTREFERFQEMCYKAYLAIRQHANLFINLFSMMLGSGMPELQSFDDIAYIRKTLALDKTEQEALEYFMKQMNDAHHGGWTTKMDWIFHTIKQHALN

Row | Compound | Kd (PI3Kβ) [nM] | Kd (PI3Kδ) [nM] | Kd (kinase enzymes [1]) [nM] | Kd (kinase enzymes [2]) [nM] | Kd (kinase enzymes [3]) [nM] | IC50 [4] [nM] | IC50 [5] [nM] | melting point [°C] | IC50 ([4]; Homo sapiens, PC-3, 1 h) [nM] | IC50 ([5]; Homo sapiens, PC-3, 1 h) [nM]
1 | CC(Nc1cc(F)cc(F)c1)c1cc(CN2C[C@@H](C)O[C@@H](C)C2)cc2ncc(N3CCOCC3)nc12 (single isomer, unassigned) [Compound 206] | 7080 | > 30200 | > 30200 | > 30200 | > 30200 | > 513 | > 513 | 80 | – | –
2 | CC(Nc1cc(F)cc(F)c1)c1cc(CN2CCOCC23COC3)cc2ncc(N3CCOCC3)nc12 (single isomer, unassigned) [Compound 192] | 9120 | > 30200 | > 30200 | > 30200 | > 30200 | > 513 | > 513 | 229 | – | –
3 | Fc1cc(F)cc(N2CCCC2c2cncc3ncc(N4CCOCC4)nc23)c1 (single isomer, unassigned) [Compound 25] | 37 | 4680 | 12300 | > 30200 | 12900 | > 513 | > 513 | 98 | – | –
4 | Cc1c(N2CCCC2c2cc(C(=O)N(C)C)cc3ncc(N4CCOCC4)nc23)cccc1C(F)(F)F (stereo not shown) [Compound 55] | 3980 | > 30200 | > 30200 | > 30200 | > 30200 | – | – | 80 | > 513 | > 513
5 | O=C(O)c1cc(C2CCCN2c2cc(F)cc(F)c2)c2nc(N3CCOCC3)cnc2c1 (stereo not shown) [Compound 62] | 1 | 51 | 25 | 2040 | 234 | – | – | > 260 | 52 | 32
6 | CN(C)C(=O)c1cc(C2CCCN2c2ccc(C#N)c(F)c2)c2nc(N3CCOCC3)cnc2c1 (stereo not shown) [Compound 54] | 115 | 7080 | 16200 | 26900 | > 30200 | – | – | 80 | > 513 | > 513
7 | CC(Nc1ccccc1)c1cc(C(=O)N(C)C)cc2ncc(N3CCOCC3)nc12 (stereo not shown) [Compound 150] | 3 | 501 | 2880 | > 30200 | 3720 | – | – | 110 | 138 | 91
8 | CC(Oc1cc(F)ccc1Br)c1cc(C(=O)N(C)C)cc2ncc(N3CCOCC3)nc12 (stereo not shown) [Compound 78] | 15 | 1170 | 3720 | > 30200 | 13500 | – | – | 235 | ~219 | ~295
9 | O=C(c1cc(C2CCCN2c2cc(F)cc(F)c2)c2nc(N3CCOCC3)cnc2c1)N1CCC[C@H]1CO (mixture of isomers) [Compound 64] | 1 | 58 | 224 | 15100 | 1290 | – | – | 80 | 13 | 6
10 | CN(C)CCNC(=O)c1cc(CNc2cc(F)cc(F)c2)c2nc(N3CCOCC3)cnc2c1 [Compound 394] | 0.2 | 776 | 3240 | 23400 | 12600 | – | – | 161 | ~26.3 | 18
11 | CNCCN(C)C(=O)c1cc(C(C)Nc2cc(F)c(F)c(F)c2)c2nc(N3CCOCC3)cnc2c1 (single isomer, unassigned) [Compound 335b] | 11 | 3420 | 8320 | > 30200 | 13500 | 188 | 207 | 80 | – | –
